Measured values reported in the NIST ThermoML archive (doi:10.1016/j.jct.2016.03.021).

Assay: wn = mass fraction of the nth substance listed
Conditions: Liquid; for mass density: Vibrating tube method

NCCO [2-aminoethan-1-ol] + O
mass density [kg/m3]
Conditions	w1 = 0.1001	w1 = 0.2	w1 = 0.3005	w1 = 0.4
333.15 K, 30000 kPa	–	–	1003.5	1006.7
333.15 K, 40000 kPa	1002.7	1004.5	1007.3	1010.4
333.15 K, 50000 kPa	1006.5	1008	1010.8	1013.8
333.15 K, 60000 kPa	1010.4	1011.7	1014.4	1017.3
333.15 K, 70000 kPa	1014.1	1015.2	1017.8	1020.7
333.15 K, 80000 kPa	1017.7	1018.7	1021.1	1024
333.15 K, 90000 kPa	1021.3	1022.1	1024.4	1027.1
333.15 K, 100000 kPa	1024.8	1025.5	1027.7	1030.3
333.15 K, 110000 kPa	1028.1	1028.8	1031	1033.5
333.15 K, 120000 kPa	1031.7	1032.2	1034.2	1036.7
353.15 K, 100 kPa	974.7	976.7	979.2	981.9
353.15 K, 500 kPa	974.7	976.7	979.4	982
353.15 K, 1000 kPa	975	976.9	979.6	982.2
353.15 K, 2000 kPa	975.4	977.4	980	982.6
353.15 K, 5000 kPa	976.7	978.6	981.2	983.9
353.15 K, 10000 kPa	978.9	980.8	983.3	986
353.15 K, 15000 kPa	981.1	982.9	985.4	988
353.15 K, 20000 kPa	983.2	984.9	987.4	990
353.15 K, 30000 kPa	987.4	988.9	991.4	993.9
353.15 K, 40000 kPa	991.4	992.9	995.2	997.7
353.15 K, 50000 kPa	995.4	996.7	999	1001.4
353.15 K, 60000 kPa	999.4	1000.6	1002.7	1005.1
353.15 K, 70000 kPa	1003.1	1004.2	1006.2	1008.6
353.15 K, 80000 kPa	1006.9	1007.7	1009.8	1012.1
353.15 K, 90000 kPa	1010.5	1011.3	1013.1	1015.3
353.15 K, 100000 kPa	1014.1	1014.7	1016.6	1018.7
353.15 K, 110000 kPa	1017.7	1018.2	1020	1022.1
353.15 K, 120000 kPa	1021.2	1021.6	1023.3	1025.2
373.15 K, 100 kPa	960.8	962.5	964.5	966.6
373.15 K, 500 kPa	961	962.7	964.8	966.9
373.15 K, 1000 kPa	961.3	962.9	965	967.1
373.15 K, 2000 kPa	961.8	963.4	965.5	967.6
373.15 K, 5000 kPa	963.1	964.7	966.8	968.9
373.15 K, 10000 kPa	965.5	966.9	969	971.1
373.15 K, 15000 kPa	967.7	969.1	971.2	973.3
373.15 K, 20000 kPa	969.9	971.3	973.4	975.4
373.15 K, 30000 kPa	974.4	975.6	977.6	979.7
373.15 K, 40000 kPa	978.7	979.8	981.7	983.8
373.15 K, 50000 kPa	982.8	983.7	985.6	987.6
373.15 K, 60000 kPa	986.8	987.7	989.5	991.6
373.15 K, 70000 kPa	990.8	991.5	993.3	995.2
373.15 K, 80000 kPa	994.8	995.4	997.1	999.1
373.15 K, 90000 kPa	998.5	999	1000.8	1002.5
373.15 K, 100000 kPa	1002.2	1002.5	1004.2	1006
373.15 K, 110000 kPa	1005.9	1006.1	1007.7	1009.5
373.15 K, 120000 kPa	1009.6	1009.6	1011.1	1012.9
393.15 K, 100 kPa	945.2	946.5	948.4	950
393.15 K, 500 kPa	945.6	946.9	948.8	950.4
393.15 K, 1000 kPa	945.8	947	948.9	950.6
393.15 K, 2000 kPa	946.3	947.5	949.4	951.1
393.15 K, 5000 kPa	947.8	949	950.9	952.5
393.15 K, 10000 kPa	950.3	951.5	953.3	955
393.15 K, 15000 kPa	952.7	953.8	955.7	957.3
393.15 K, 20000 kPa	955.2	956.2	958.1	959.7
393.15 K, 30000 kPa	959.8	960.7	962.6	964.3
393.15 K, 40000 kPa	964.4	965.2	967	968.7
393.15 K, 50000 kPa	968.7	969.4	971.1	972.8
393.15 K, 60000 kPa	973	973.6	975.3	977
393.15 K, 70000 kPa	977.3	977.8	979.5	981.1
393.15 K, 80000 kPa	981.3	981.6	983.2	985
393.15 K, 90000 kPa	985.2	985.6	987.1	988.8
393.15 K, 100000 kPa	989.1	989.4	990.9	992.5
393.15 K, 110000 kPa	993	993	994.6	996.2
393.15 K, 120000 kPa	996.7	996.7	998.2	999.7

viscosity [mPa·s]
Conditions	333.15 K	353.15 K
93 kPa, Concentric cylinders viscometry, w1 = 0.3	–	0.764
93 kPa, Concentric cylinders viscometry, w1 = 0.4	–	0.9518
100 kPa, Falling or rolling sphere viscometry, w1 = 0.3005	–	0.746
100 kPa, Falling or rolling sphere viscometry, w1 = 0.4001	–	0.942
101 kPa, Falling or rolling sphere viscometry, w1 = 0.3	–	0.746
101 kPa, Falling or rolling sphere viscometry, w1 = 0.4	–	0.942
5000 kPa, Falling or rolling sphere viscometry, w1 = 0.3005	–	0.748
5000 kPa, Falling or rolling sphere viscometry, w1 = 0.4001	–	0.944
10000 kPa, Falling or rolling sphere viscometry, w1 = 0.3005	–	0.755
10000 kPa, Falling or rolling sphere viscometry, w1 = 0.4001	–	0.957
20000 kPa, Falling or rolling sphere viscometry, w1 = 0.3005	–	0.768
20000 kPa, Falling or rolling sphere viscometry, w1 = 0.4001	–	0.975
30000 kPa, Falling or rolling sphere viscometry, w1 = 0.3005	–	0.777
30000 kPa, Falling or rolling sphere viscometry, w1 = 0.4001	–	0.989
40000 kPa, Falling or rolling sphere viscometry, w1 = 0.1001	0.63	–
40000 kPa, Falling or rolling sphere viscometry, w1 = 0.2	0.815	–
40000 kPa, Falling or rolling sphere viscometry, w1 = 0.3005	1.115	0.787
40000 kPa, Falling or rolling sphere viscometry, w1 = 0.4001	1.475	1.006
60000 kPa, Falling or rolling sphere viscometry, w1 = 0.1001	0.639	–
60000 kPa, Falling or rolling sphere viscometry, w1 = 0.2	0.829	0.607
60000 kPa, Falling or rolling sphere viscometry, w1 = 0.3005	1.14	0.807
60000 kPa, Falling or rolling sphere viscometry, w1 = 0.4001	1.518	1.039
80000 kPa, Falling or rolling sphere viscometry, w1 = 0.1001	0.646	–
80000 kPa, Falling or rolling sphere viscometry, w1 = 0.2	0.844	0.619
80000 kPa, Falling or rolling sphere viscometry, w1 = 0.3005	1.165	0.828
80000 kPa, Falling or rolling sphere viscometry, w1 = 0.4001	1.559	1.068
100000 kPa, Falling or rolling sphere viscometry, w1 = 0.1001	0.655	–
100000 kPa, Falling or rolling sphere viscometry, w1 = 0.2	0.859	0.632
100000 kPa, Falling or rolling sphere viscometry, w1 = 0.3005	1.189	0.847
100000 kPa, Falling or rolling sphere viscometry, w1 = 0.4001	1.6	1.097
120000 kPa, Falling or rolling sphere viscometry, w1 = 0.1001	0.663	–
120000 kPa, Falling or rolling sphere viscometry, w1 = 0.2	0.874	0.644
120000 kPa, Falling or rolling sphere viscometry, w1 = 0.3005	1.211	0.861
120000 kPa, Falling or rolling sphere viscometry, w1 = 0.4001	1.645	1.128
